In PMC11078746 (Nature, 2024):
Values joined by “and” are separate entries in the source; they are usually repeats but may differ in a detail not shown here. Equal entries are not always repeated.

Experiment: Mouse body weight, SW48 xenograft study with HRO761
Type: in vivo
Procedure: All animal studies were conducted in accordance with ethics and procedures covered by permit BS-2275 and BS-1975 issued by the Kantonales Veterinäramt Basel-Stadt and in strict adherence to guidelines of the Eidgenössisches Tierschutzgesetz and the Eidgenössische Tierschutzverordnung, Switzerland. All animal studies were approved by the internal ethics committee. All animals had access to food and water ad libitum and were identified with transponders. They were housed in a specific-pathogen-free facility in IVC racks under a 12 h–12 h light–dark cycle. To establish cell-line-derived xenograft models, 6–7-week-old female athymic nude (Crl:NU(NCr)-Foxn1^nu) or SCID-BEIGE (CB17.Cg-PrkdcscidLystbg-J/Crl) mice from Charles River were engrafted subcutaneously with 5 million tumour cells in HBSS (H6648, Sigma-Aldrich). For SNU-407, Lovo, IM95, RL95.2, Ishikawa and IGROV-1, the cells were concentrated in 50% Matrigel (354234, Corning). Patient-derived xenografts were induced and expanded by transplantation as previously described. […] For the efficacy experiment, mice were randomized into groups (n = 5–6) for a mean tumour size of 100–150 mm^3. […] Blood samples were collected on day 7 and 91. […] Tumour responses are reported with the measures of tumour volumes from the treatment start. […] Animals were randomized (n = 3) and tumour samples were collected at 0, 1, 4, 8 and 24 h on the first day and then collected 4 h after the last treatment on day 3, 8, 10, 14 (including a 24 h timepoint), 17 and 21. Tumours were excised, weighed, either frozen in liquid nitrogen and cryogenic dry pulverized with the CryoPrep system (model CP-02, Covaris) or processed to FFPE after fixation. […] On day 12, blood samples were collected for PK analysis. On the last day (3 h after the last treatment), tumours were excised, weighed, frozen in liquid nitrogen and cryogenic dry pulverized for PD analysis.

[1] = HRO761 20mg/kg, day 0 post 1st dose
[2] = HRO761 40mg/kg, day 0 post 1st dose
[3] = HRO761 60mg/kg, day 0 post 1st dose

## CCc1c(N2CCN(C(=O)c3ncnc(C)c3O)CC2)c(=O)n2nc(C3=CCOCC3)nc2n1CC(=O)Nc1ccc(C(F)(F)F)cc1Cl [HRO761]
[1]
  Delta BW change, individual mouse: 0%
  Mean DBW: 0.00%
HRO761 20mg/kg, day 3 post 1st dose
  Mean DBW: -0.35%
HRO761 20mg/kg, day 3 post 1st dose, 20 mg/kg
  Delta BW change, individual mouse: 1.24% and 0% (2×) and -0.78% and -2.23%
HRO761 20mg/kg, day 7 post 1st dose
  Mean DBW: 0.52%
HRO761 20mg/kg, day 7 post 1st dose, 20 mg/kg
  Delta BW change, individual mouse: 2.07% and 1.26% and 1.16% and -1.17% and -0.74%
HRO761 20mg/kg, day 10 post 1st dose
  Mean DBW: 1.67%
HRO761 20mg/kg, day 10 post 1st dose, 20 mg/kg
  Delta BW change, individual mouse: 3.32% and 6.28% and -1.54% and -1.56% and 1.86%
HRO761 20mg/kg, day 14 post 1st dose
  Mean DBW: 1.33%
HRO761 20mg/kg, day 14 post 1st dose, 20 mg/kg
  Delta BW change, individual mouse: 1.66% and 5.86% and -2.32% and -0.78% and 2.23%
HRO761 20mg/kg, day 17 post 1st dose
  Mean DBW: 2.56%
HRO761 20mg/kg, day 21 post 1st dose
  Mean DBW: 4.75%
HRO761 20mg/kg, day 24 post 1st dose
  Mean DBW: 2.97%
HRO761 20mg/kg, day 28 post 1st dose
  Mean DBW: 3.11%
HRO761 20mg/kg, day 31 post 1st dose
  Mean DBW: 2.34%
HRO761 20mg/kg, day 35 post 1st dose
  Mean DBW: 3.43%
HRO761 20mg/kg, day 38 post 1st dose
  Mean DBW: 2.26%
HRO761 20mg/kg, day 42 post 1st dose
  Mean DBW: 3.84%
HRO761 20mg/kg, day 45 post 1st dose
  Mean DBW: 3.81%
[2]
  Delta BW change, individual mouse: 0%
  Mean DBW: 0.00%
HRO761 40mg/kg, day 3 post 1st dose
  Mean DBW: -0.77%
HRO761 40mg/kg, day 3 post 1st dose, 40 mg/kg
  Delta BW change, individual mouse: -0.91% and 0.87% and -5.78% and -3.41% and 5.36%
HRO761 40mg/kg, day 7 post 1st dose
  Mean DBW: 2.11%
HRO761 40mg/kg, day 7 post 1st dose, 40 mg/kg
  Delta BW change, individual mouse: 3.18% and 5.63% and -3.25% and -1.14% and 6.13%
HRO761 40mg/kg, day 10 post 1st dose
  Mean DBW: 1.41%
HRO761 40mg/kg, day 10 post 1st dose, 40 mg/kg
  Delta BW change, individual mouse: 4.09% and 1.73% and -2.17% and 2.27% and 1.15%
HRO761 40mg/kg, day 14 post 1st dose
  Mean DBW: 4.08%
HRO761 40mg/kg, day 14 post 1st dose, 40 mg/kg
  Delta BW change, individual mouse: 5% and 7.36% and -0.36% and 4.17% and 4.21%
HRO761 40mg/kg, day 17 post 1st dose
  Mean DBW: 3.43%
HRO761 40mg/kg, day 21 post 1st dose
  Mean DBW: 5.66%
HRO761 40mg/kg, day 24 post 1st dose
  Mean DBW: 6.90%
HRO761 40mg/kg, day 28 post 1st dose
  Mean DBW: 6.44%
HRO761 40mg/kg, day 31 post 1st dose
  Mean DBW: 5.60%
HRO761 40mg/kg, day 35 post 1st dose
  Mean DBW: 6.99%
HRO761 40mg/kg, day 38 post 1st dose
  Mean DBW: 6.65%
HRO761 40mg/kg, day 42 post 1st dose
  Mean DBW: 6.89%
HRO761 40mg/kg, day 45 post 1st dose
  Mean DBW: 7.16%
HRO761 40mg/kg, day 49 post 1st dose
  Mean DBW: 8.78%
HRO761 40mg/kg, day 52 post 1st dose
  Mean DBW: 8.33%
HRO761 40mg/kg, day 56 post 1st dose
  Mean DBW: 7.63%
HRO761 40mg/kg, day 59 post 1st dose
  Mean DBW: 8.29%
HRO761 40mg/kg, day 63 post 1st dose
  Mean DBW: 9.98%
HRO761 40mg/kg, day 66 post 1st dose
  Mean DBW: 10.38%
HRO761 40mg/kg, day 70 post 1st dose
  Mean DBW: 8.92%
HRO761 40mg/kg, day 73 post 1st dose
  Mean DBW: 8.55%
HRO761 40mg/kg, day 76 post 1st dose
  Mean DBW: 11.97%
HRO761 40mg/kg, day 79 post 1st dose
  Mean DBW: 7.46%
HRO761 40mg/kg, day 83 post 1st dose
  Mean DBW: 7.38%
HRO761 40mg/kg, day 86 post 1st dose
  Mean DBW: 9.81%
[3]
  Delta BW change, individual mouse: 0%
  Mean DBW: 0.00%
HRO761 60mg/kg, day 3 post 1st dose
  Mean DBW: -1.52%
HRO761 60mg/kg, day 3 post 1st dose, 60 mg/kg
  Delta BW change, individual mouse: -2.98% and 1.63% and -3.35% and -4.6% and 1.71%
HRO761 60mg/kg, day 7 post 1st dose
  Mean DBW: -1.16%
HRO761 60mg/kg, day 7 post 1st dose, 60 mg/kg
  Delta BW change, individual mouse: -1.7% and -3.27% and 1.26% and -3.35% and 1.28%
HRO761 60mg/kg, day 10 post 1st dose
  Mean DBW: -1.23%
HRO761 60mg/kg, day 10 post 1st dose, 60 mg/kg
  Delta BW change, individual mouse: -0.43% and -6.94% and 7.11% and -5.02% and -0.85%
HRO761 60mg/kg, day 14 post 1st dose
  Mean DBW: 0.014%
HRO761 60mg/kg, day 14 post 1st dose, 60 mg/kg
  Delta BW change, individual mouse: -0.43% and -2.86% and 6.69% and -4.18% and 0.85%
HRO761 60mg/kg, day 17 post 1st dose
  Mean DBW: -0.23%
HRO761 60mg/kg, day 21 post 1st dose
  Mean DBW: 1.03%
HRO761 60mg/kg, day 24 post 1st dose
  Mean DBW: 2.43%
